In ChEMBL document CHEMBL5131493, “Synthesis and evaluation of RNase L-binding 2-aminothiophenes as anticancer agents” (Bioorg Med Chem, 2022):
One block for each compound: values may come before it.

What was measured:
JAR [1] = experiment: Antiproliferative activity against human JAR cells assessed as cell growth inhibition at 10 uM incubated for 72 hrs by MTT assay relative to control; type: functional
MCF7 [2] = experiment: Antiproliferative activity against human MCF7 cells assessed as cell growth inhibition at 10 uM incubated for 72 hrs by MTT assay relative to control; type: functional
JAR [3] = experiment: Antiproliferative activity against human JAR cells assessed as cell growth inhibition incubated for 72 hrs by MTT assay; type: functional, cell-based
K562 [4] = experiment: Antiproliferative activity against human K562 cells assessed as cell growth inhibition incubated for 72 hrs by MTT assay; type: functional, cell-based; settings: K562, 72 h
A549 [5] = experiment: Antiproliferative activity against human A549 cells assessed as cell growth inhibition incubated for 72 hrs by MTT assay; type: functional, cell-based; settings: A549, 72 h
Homo sapiens = species on record: Homo sapiens; experiment: Binding affinity to RNase L (unknown origin) expressed in Escherichia coli BL21 (DE3) assessed as thermal stability by measuring melting temperature at 60 uM incubated for 50 mins by NanoDSF analysis
K562 [6] = experiment: Antiproliferative activity against human K562 cells assessed as cell growth inhibition at 10 uM incubated for 72 hrs by MTT assay relative to control; type: functional
A549 [7] = experiment: Antiproliferative activity against human A549 cells assessed as cell growth inhibition at 10 uM incubated for 72 hrs by MTT assay relative to control; type: functional
MCF7 [8] = experiment: Antiproliferative activity against human MCF7 cells assessed as cell growth inhibition incubated for 72 hrs by MTT assay; type: functional, cell-based; settings: MCF7, 72 h

SMILES: CCOC(=O)C1=C(Nc2ccccc2)S/C(=C\c2cc3cnccc3[nH]2)C1=O
inhibition at 10 µM (JAR [1]): < 10%

SMILES: CCOC(=O)C1=C(Nc2ccc(Br)cc2)S/C(=C\c2ccc[nH]2)C1=O
inhibition at 10 µM (JAR [1]): 41.5% | inhibition at 10 µM (K562 [6]): 17% | inhibition at 10 µM (A549 [7]): < 10% | inhibition at 10 µM (MCF7 [2]): < 10% | IC50 (JAR [3]): 27 µM

SMILES: CCOC(=O)C1=C(Nc2ccc(C)cc2)S/C(=C\c2ccc[nH]2)C1=O
inhibition at 10 µM (JAR [1]): < 10% | inhibition at 10 µM (A549 [7]): 20.9% | inhibition at 10 µM (MCF7 [2]): < 10%

SMILES: CCOC(=O)C1=C(Nc2ccc(OC)c(OC)c2)S/C(=C\c2ccc[nH]2)C1=O
inhibition at 10 µM (JAR [1]): 47.9%

SMILES: CCOC(=O)C1=C(Nc2ccccc2)S/C(=C\c2ccc(Br)c(O)c2)C1=O
inhibition at 10 µM (JAR [1]): 39.8% | inhibition at 10 µM (K562 [6]): 22% | inhibition at 10 µM (A549 [7]): 13.6% | inhibition at 10 µM (MCF7 [2]): 16.4%

SMILES: CCOC(=O)C1=C(Nc2ccc(C(F)(F)F)cc2)S/C(=C\c2ccc[nH]2)C1=O
inhibition at 10 µM (JAR [1]): 38.5% | inhibition at 10 µM (A549 [7]): 30.1% | inhibition at 10 µM (MCF7 [2]): 19.1% | IC50 (JAR [3]): 46.8 µM

SMILES: CCOC(=O)C1=C(Nc2ccccc2)S/C(=C\c2cc[nH]c2)C1=O
inhibition at 10 µM (JAR [1]): 19.5% | inhibition at 10 µM (K562 [6]): 18.9% | inhibition at 10 µM (A549 [7]): < 10% | inhibition at 10 µM (MCF7 [2]): < 10%

SMILES: CCOC(=O)C1=C(Nc2ccc(CC)cc2)S/C(=C\c2ccc[nH]2)C1=O
inhibition at 10 µM (JAR [1]): < 10% | inhibition at 10 µM (A549 [7]): 17.5%

SMILES: CCOC(=O)C1=C(Nc2ccccc2)S/C(=C\c2cc3ccncc3[nH]2)C1=O
inhibition at 10 µM (JAR [1]): 26.3% | inhibition at 10 µM (K562 [6]): 22.8% | inhibition at 10 µM (A549 [7]): 17.1% | inhibition at 10 µM (MCF7 [2]): 18.2%

SMILES: CCOC(=O)C1=C(Nc2ccccc2)SC(=C2CCN(C)CC2)C1=O
inhibition at 10 µM (JAR [1]): < 10% | inhibition at 10 µM (A549 [7]): < 10% | inhibition at 10 µM (MCF7 [2]): < 10%

Now from value to compound, other results behind:

IC50 (K562 [4]): 6.6 µM | IC50 (A549 [5]): 13.6 µM
SMILES: CCOC(=O)C1=C(Nc2ccccc2)S/C(=C\c2cc3ncccc3[nH]2)C1=O
inhibition at 10 µM (JAR [1]): 74.8% | inhibition at 10 µM (MCF7 [2]): 42.2% | IC50 (JAR [3]): 9.6 µM

ΔTm (Homo sapiens): 0.5 °C | IC50 (K562 [4]): 10.7 µM | IC50 (A549 [5]): 35.8 µM
SMILES: CCOC(=O)C1=C(Nc2ccccc2)SC(=C2CN(C(=O)OC(C)(C)C)C2)C1=O
inhibition at 10 µM (MCF7 [2]): 29.6% | IC50 (JAR [3]): 23.2 µM

IC50 (K562 [4]): > 100 µM
SMILES: CCOC(=O)C1=C(Nc2ccc(F)cc2)S/C(=C\c2ccc[nH]2)C1=O
inhibition at 10 µM (JAR [1]): 61.5% | inhibition at 10 µM (A549 [7]): < 10% | inhibition at 10 µM (MCF7 [2]): < 10% | IC50 (JAR [3]): 15.9 µM

ΔTm (Homo sapiens): 0.6 °C
SMILES: CCOC(=O)C1=C(Nc2ccccc2)S/C(=C\c2ccc(OC)c(O)c2)C1=O
inhibition at 10 µM (A549 [7]): 11%

IC50 (K562 [4]): > 100 µM
SMILES: CCOC(=O)C1=C(Nc2ccccc2)S/C(=C\c2c[nH]c3ccccc23)C1=O
inhibition at 10 µM (JAR [1]): 57.6% | inhibition at 10 µM (A549 [7]): 19.8% | inhibition at 10 µM (MCF7 [2]): 25% | IC50 (JAR [3]): 14.1 µM

IC50 (K562 [4]): 71 µM | IC50 (A549 [5]): > 100 µM | IC50 (MCF7 [8]): 48 µM
SMILES: CCOC(=O)C1=C(Nc2ccccc2)S/C(=C\c2ccc[nH]2)C1=O
inhibition at 10 µM (JAR [1]): 49.2% | inhibition at 10 µM (K562 [6]): 16.2% | inhibition at 10 µM (A549 [7]): 23.5% | inhibition at 10 µM (MCF7 [2]): 18.3% | IC50 (JAR [3]): 9.5 µM

ΔTm (Homo sapiens): 0.5 °C
SMILES: CCOC(=O)C1=C(Nc2ccccc2)S/C(=C\c2cc(OC)ccc2OC)C1=O
inhibition at 10 µM (JAR [1]): 38.1% | inhibition at 10 µM (K562 [6]): 30.7% | inhibition at 10 µM (A549 [7]): < 10% | inhibition at 10 µM (MCF7 [2]): < 10%

IC50 (K562 [4]): 31.7 µM | IC50 (A549 [5]): 19.2 µM
SMILES: CCOC(=O)C1=C(Nc2ccccc2)S/C(=C\c2cc(OC)c(O)c(OC)c2)C1=O
inhibition at 10 µM (JAR [1]): 57.5% | inhibition at 10 µM (A549 [7]): 19.2% | inhibition at 10 µM (MCF7 [2]): 12.9% | IC50 (JAR [3]): 17.4 µM

ΔTm (Homo sapiens): 0.7 °C | IC50 (K562 [4]): 4.5 µM | IC50 (A549 [5]): 17 µM | IC50 (MCF7 [8]): 18.1 µM
SMILES: CCOC(=O)C1=C(Nc2ccccc2)SC(=C2CCC2)C1=O
inhibition at 10 µM (JAR [1]): 70.2% | inhibition at 10 µM (MCF7 [2]): 40.4% | IC50 (JAR [3]): 8.4 µM

ΔTm (Homo sapiens): 0.5 °C | IC50 (K562 [4]): 38.7 µM
SMILES: CCOC(=O)C1=C(Nc2ccccc2)S/C(=C\c2cccc(O)c2)C1=O
inhibition at 10 µM (JAR [1]): 51.9% | inhibition at 10 µM (A549 [7]): 30.6% | inhibition at 10 µM (MCF7 [2]): 24.1% | IC50 (JAR [3]): 17 µM

IC50 (K562 [4]): 12.7 µM | IC50 (A549 [5]): 19.1 µM
SMILES: CCOC(=O)C1=C(Nc2ccccc2)S/C(=C\c2ccc([N+](=O)[O-])c(O)c2)C1=O
inhibition at 10 µM (JAR [1]): 51.2% | inhibition at 10 µM (MCF7 [2]): 41.5% | IC50 (JAR [3]): 12.7 µM

IC50 (K562 [4]): 16.2 µM
SMILES: CCOC(=O)C1=C(Nc2ccccc2)S/C(=C\c2cccc(C(=O)O)c2)C1=O
inhibition at 10 µM (JAR [1]): 50.6% | inhibition at 10 µM (A549 [7]): < 10% | inhibition at 10 µM (MCF7 [2]): < 10% | IC50 (JAR [3]): 11.7 µM
